A word on the Ki: it is a dissociation constant, usually derived from enzyme kinetics or from competition with a known ligand. In general, inhibition refers to the relative decrease from the control value, in per cent. The low end stands for a weak effect, the high end for a strong effect.

Molecules are shown by their SMILES. Structures can show the parent of a compound that is named as a salt.

Drawing on patent publication US5567711A, “Indole-3-carbonyl and indole-3-sulfonyl derivatives as platelet activating factor antagonists” (Abbott Laboratories, priority 1995, dated 1996), this text covers Ki and inhibition for 30 compounds.

The target of one assay is PAF receptor (Oryctolagus cuniculus, UniProt G1TEI7). The assay is described as follows: PAF receptor binding assay: inhibition of specific [^3 H]C18 -PAF binding to rabbit platelet membranes.
Sequence of PAF receptor (G1TEI7 1-342): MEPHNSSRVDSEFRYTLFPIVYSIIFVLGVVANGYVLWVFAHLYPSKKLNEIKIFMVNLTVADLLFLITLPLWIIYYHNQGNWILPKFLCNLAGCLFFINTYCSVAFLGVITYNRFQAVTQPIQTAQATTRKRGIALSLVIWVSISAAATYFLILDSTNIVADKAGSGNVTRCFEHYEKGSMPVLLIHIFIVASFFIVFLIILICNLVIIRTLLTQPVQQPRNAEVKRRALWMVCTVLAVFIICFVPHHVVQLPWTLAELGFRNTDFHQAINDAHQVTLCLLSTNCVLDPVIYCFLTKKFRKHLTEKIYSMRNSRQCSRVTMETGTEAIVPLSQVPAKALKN
Conditions: not given
`CCOCCn1cc(C(=O)CN2CCC(n3c(C)nc4cnccc43)CC2)c2c(C)cccc21` [Example 28, 1-(2-ethoxyethyl)-4-methyl-3-{[4-(1H-2-methylimidazo[4.5-c]pyrid-1-yl)piperidin-1-yl]acetyl}indole] came in with an inhibition constant Ki of 0.5 nM.

With `CCOCCn1cc(C(=O)N2CCC(Cn3c(C)nc4cnccc43)CC2)c2ccc(-c3ccc(F)cc3)cc21` [Example 8, 1-(2-ethoxyethyl)-6-(4-fluorophenyl)-3-{[4-(1H-2-methylimidazo[4,5-c]pyrid-1-yl)methylpiperidin-1-yl]carbonyl}indole hydrochloride], the Ki worked out at 1.2 nM.

As to `CCOCCn1cc(C(=O)CN2CCC(n3c(C)nc4cnccc43)CC2)c2c(Cl)cccc21` [Example 25], the affinity, expressed as Ki, was 10 nM.

On to `CCOCCn1cc(C(=O)CN2CCC(n3c(C)nc4cnccc43)CC2)c2c(C(=O)OC)cccc21` [Example 23], for which the Ki worked out at 5.2 nM.

Still in this assay, the particulars now being: @ 1.0 μM; rabbit platelet membranes; 0.6 nM [^3 H]C18 -PAF; 60 minutes at room temperature.
The compound `Cc1nc2cnccc2n1C1CCN(S(=O)(=O)c2c[nH]c3cc(-c4ccc(F)cc4)ccc23)CC1` [Example 13, 6-(4-fluorophenyl)-3-{[4-(1H-2-methylimidazo[4.5-c]pyrid-1-yl)piperidin-1-yl]sulfonyl}indole] had an inhibition at 1 µM of 32%.

The same assay, now with this note: rabbit platelet membranes; 0.6 nM [^3 H]C18 -PAF; 60 minutes at room temperature; pH 7.0; Ki by Cheng and Prusoff from IC50.
As to `CCOCCn1cc(C(=O)N2CCC(Cn3c(C)nc4cnccc43)CC2)c2c(Cl)cccc21` [Example 9, 1-(2-ethoxyethyl)-4-chloro-3-{[4-(1H-2-methylimidazo[4.5-c]pyrid-1-yl)methylpiperidin-1-yl]carbonyl}indole hydrochloride], affinity was put at a Ki of 29 nM.

The assay is the same for the next values; noted with them: rabbit platelet membranes; 0.6 nM [^3 H]C18 -PAF; 60 minutes at room temperature; pH 7.0; Ki by Cheng and Prusoff from IC50; read-out: Ki.
Consider `Cc1nc2cnccc2n1C1CCN(CC(=O)c2c[nH]c3cc(-c4ccc(F)cc4)ccc23)CC1` [Example 19, 6-(4-fluorophenyl)-3-{[4-(1H-2-methylimidazo[4.5-c]pyrid-1-yl)piperidin-1-yl]acetyl}indole], for which the Ki was determined as 95 nM.

`Cc1cccc2[nH]cc(C(=O)CN3CCC(n4c(C)nc5cnccc54)CC3)c12` [Example 27, 4-methyl-3-{[4-(1H-2-methylimidazo[4.5-c]pyrid-1-yl)piperidin-1-yl]acetyl}indole]: the Ki was found to be 71 nM.

Take `Cc1nc2cnccc2n1C1CCN(S(=O)(=O)c2cn(C(=O)OC(C)(C)C)c3cc(-c4ccc(F)cc4)ccc23)CC1` [Example 12, 6-(4-fluorophenyl)-3-{[4-(1H-2-methylimidazo[4.5-c]pyrid-1-yl)piperidin-1-yl]sulfonyl}indole-1-carboxylic acid t-butyl ester]: the inhibition constant (Ki) is 340 nM.

For `Cc1nc2cnccc2n1CC1CCN(S(=O)(=O)c2cn(C(=O)OC(C)(C)C)c3cc(-c4ccc(F)cc4)ccc23)CC1` [Example 15, 6-(4-fluorophenyl)-3-{[4-(1H-2-methylimidazo[4.5-c]pyrid-1-yl)methylpiperidin-1-yl]sulfonyl)indole-1-carboxylic acid t-butyl ester], the Ki came out at 65 nM.

Turning to `Cc1nc2cnccc2n1C1CCN(CC(=O)c2cn(C(=O)N(C)C)c3cc(-c4ccc(F)cc4)ccc23)CC1` [Example 20], the inhibitory constant (Ki) was found to be 2.5 nM.

With `Cc1nc2cnccc2n1CC1CCN(S(=O)(=O)c2cn(C(=O)N(C)C)c3cc(-c4ccc(F)cc4)ccc23)CC1` [Example 17, 6-(4-fluorophenyl)-3-{[4-(1H-2-methylimidazo[4.5-c]pyrid-1-yl)methylpiperidin-1-yl]sulfonyl}indole-1-carboxylic acid dimethyl amide], the inhibition constant (Ki) was 1.2 nM.

Regarding `COC(=O)c1cccc2c1c(C(=O)N1CCC(n3c(C)nc4cnccc43)CC1)cn2C(=O)N(C)C` [Example 4, 3-{[4-(1H-2-methylimidazo[4.5-c]pyrid-1-yl)piperidin-1-yl]carbonyl}indole-1,4-dicarboxylic acid 1-dimethyl amide-4-methyl ester hydrochloride], the Ki turned out to be 140 nM.

Turning to `Cc1nc2cnccc2n1C1CCN(CC(=O)c2cn(C(=O)N(C)C)c3cccc(Cl)c23)CC1` [Example 26, 4-chloro-3-{[4-(1H-2-methylimidazo[4.5-c]pyrid-1-yl)piperidin-1-yl]acetyl}indole-1-carboxylic acid dimethyl amide], the Ki came to 12 nM.

Turning to `Cc1nc2cnccc2n1C1CCN(S(=O)(=O)c2cn(C(=O)N(C)C)c3cc(-c4ccc(F)cc4)ccc23)CC1` [Example 14, 6-(4-fluorophenyl)-3-{[4-(1H-2-methylimidazo[4.5-c]pyrid-1-yl)piperidin-1-yl]sulfonyl}indole-1-carboxylic acid dimethyl amide hydrochloride], the inhibition constant Ki worked out at 120 nM.

As to `Cc1nc2cnccc2n1CC1CCN(S(=O)(=O)c2c[nH]c3cc(-c4ccc(F)cc4)ccc23)CC1` [Example 16, 6-(4-fluorophenyl)-3-{[4-(1H-2-methylimidazo[4.5-c]pyrid-1-yl)methylpiperidin-1-yl]sulfonyl}indole], the inhibition constant (Ki) is 250 nM.

Turning to `Cc1nc2cnccc2n1CCN1CCN(S(=O)(=O)c2cn(C(=O)N(C)C)c3cc(-c4ccc(F)cc4)ccc23)CC1` [Example 18], the Ki came out at 110 nM.

On to `Cc1nc2cnccc2n1C1CCN(CC(=O)c2c[nH]c3cccc(Cl)c23)CC1` [Example 24, 4-chloro-3-{[4-(1H-2-methylimidazo[4.5-c]pyrid-1-yl)piperidin-1-yl]acetyl}indole], for which the inhibition constant Ki stood at 30 nM.

Regarding `COC(=O)c1cccc2[nH]cc(C(=O)CN3CCC(n4c(C)nc5cnccc54)CC3)c12` [Example 21, 3-{[4-(1H-2-methylimidazo[4.5-c]pyrid-1-yl)piperidin-1-yl]acetyl}indole-4-carboxylic acid methy ester], the inhibitory constant (Ki) was 14 nM.

Take `Cc1nc2cnccc2n1C1CCN(C(=O)c2cn(C(=O)N(C)C)c3cc(-c4ccc(F)cc4)ccc23)CC1` [Example 1, 6-(4-fluorophenyl)-3-{[4-(1H-2-methylimidazo[4.5-c]pyrid-1-yl)piperidin-1-yl]carbonyl)indole-1-carboxylic acid dimethyl amide hydrochloride]: the Ki was 3.3 nM.

Turning to `COC(=O)c1cccc2c1c(C(=O)CN1CCC(n3c(C)nc4cnccc43)CC1)cn2C(=O)N(C)C` [Example 22, 3-{[4-(1H-2-methylimidazo[4.5-c]pyrid-1-yl)piperidin-1-yl]acetyl}indole-1,4-dicarboxylic acid 1-dimethyl amide 4-methyl ester], the Ki stood at 12 nM.

As for `Cc1nc2cnccc2n1CCN1CCN(C(=O)c2cn(C(=O)N(C)C)c3cc(-c4ccc(F)cc4)ccc23)CC1` [Example 11, 6-(4-fluorophenyl)-3-[{4-[(2-(1H-2-methylimidazo[4.5-c]pyrid-1-yl)ethyl]piperazin-1-yl}carbonyl]indole-1-carboxylic acid dimethyl amide hydrochloride], the Ki stood at 30 nM.

Turning to `Cc1nc2cnccc2n1CC1CCN(C(=O)c2cn(C(=O)N(C)C)c3cccc(Cl)c23)CC1` [Example 7, 4-chloro-3-{[4-(1H-2-methylimidazo[4.5-c]pyrid-1-yl)methylpiperidin-1-yl]carbonyl}indole-1-carboxylic acid dimethyl amide hydrochloride], the inhibitory constant (Ki) was found to be 18 nM.

Regarding `COC(=O)c1cccc2c1c(C(=O)N1CCN(CCn3c(C)nc4cnccc43)CC1)cn2C(=O)N(C)C` [Example 10, 3-[{4-[(2-(1H-2-methylimidazo[4.5-c]pyrid-1-yl)ethyl]piperazin-1-yl}carbonyl]indole-1,4-dicarboxylic acid 1-dimethyl amide 4-methyl ester hydrochloride], the inhibition constant Ki came to 200 nM.

On to `Cc1nc2cnccc2n1C1CCN(C(=O)c2c[nH]c3ccccc23)CC1` [Example 3, 3-{[4-(1H-2-methylimidazo[4,5-c]pyrid-1-yl)piperidin-1-yl]carbonyl}indole hydrochloride], for which the Ki stood at 100 nM.

For the compound `Cc1nc2cnccc2n1CC1CCN(C(=O)c2cn(C(=O)N(C)C)c3cc(-c4ccc(F)cc4)ccc23)CC1` [Example 6, 6-(4-fluorophenyl)-3-{[4-(1H-2-methylimidazo[4.5-c]pyrid-1-yl)methylpiperidin-1-yl]carbonyl}indole-1-carboxylic acid dimethyl amide hydrochloride], the Ki is 2.5 nM.

In the case of `Cc1cccc2c1c(C(=O)CN1CCC(n3c(C)nc4cnccc43)CC1)cn2C(=O)N(C)C` [Example 29, 4-methyl-3-{[4-(1H-2-methylimidazo[4.5:c]pyrid-1-yl)piperidin-1-yl]acetyl}indole-1-carboxylic acid dimethyl amide], the Ki is 2 nM.

In the case of `Cc1nc2cnccc2n1C1CCN(C(=O)c2c[nH]c3cc(-c4ccc(F)cc4)ccc23)CC1` [Example 2, 6-(4-fluorophenyl)-3-{[4-(1H-2-methylimidazo[4.5-c]pyrid-1-yl)piperidin-1-yl]carbonyl}indole hydrochloride], the Ki turned out to be 44 nM.

Regarding `COC(=O)c1cccc2c1c(C(=O)N1CCC(Cn3c(C)nc4cnccc43)CC1)cn2C(=O)N(C)C` [Example 5, 1-N,N-dimethylcarbamoyl-4-methoxycarbonyl-3-{[4-(1H-2-methylimidazo[4.5-c]pyrid-1-yl)methylpiperidin-1-yl]carbonyl}indole-1,4-dicarboxylic acid 1-dimethyl amide-4-methyl ester hydrochloride], the Ki worked out at 74 nM.

As to `COC(=O)c1cccc2c1c(C(=O)[C@H]1CC[C@H](Cn3c(C)nc4cnccc43)CC1)cn2C(=O)N(C)C` [Example 30, 3-{[trans-4-[(1H-2-methylimidazo[4.5-c]pyrid-1-yl)methylcyclohex-1-yl]carbonyl}indole-1,4-dicarboxylic acid 1-dimethyl amide 4-methyl ester hydrochloride], the inhibition constant Ki is 2.4 nM.
